Data taken from publication PMC5825103 (PLoS ONE, 2018).
Where two headings read alike, the source gives them in different places.

What was measured:
PR-LBD = target: T1, PR-LBD (Homo sapiens, UniProt P06401); test: filtration radioligand binding (Eurofins Cerep); details: competition binding; ± SD
T1 construct: PR-LBD (catalogue number 2341) were performed by Eurofins Cerep SA, France; purchased Eurofins Cerep SA, France 2341
T1 sequence (P06401 679-913 limits assumed): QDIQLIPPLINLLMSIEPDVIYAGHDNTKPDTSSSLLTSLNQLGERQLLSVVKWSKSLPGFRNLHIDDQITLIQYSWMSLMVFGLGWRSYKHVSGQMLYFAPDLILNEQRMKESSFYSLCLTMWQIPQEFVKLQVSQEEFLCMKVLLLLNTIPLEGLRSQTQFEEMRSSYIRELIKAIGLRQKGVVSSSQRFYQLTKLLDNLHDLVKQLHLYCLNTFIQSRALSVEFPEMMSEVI
Protocol: Filtration based radioligand binding assays for human GR-LBD (catalogue number 0469), AR-LBD (catalogue number 0933) and PR-LBD (catalogue number 2341) were performed by Eurofins Cerep SA, France.

rat MR LBD = target: T2, rat MR LBD (Rattus norvegicus, UniProt P22199); test: GAL4-MR LBD reporter gene assay, U2-OS cells; format: cell-based
T2 construct: expressed in transfected cells; host or cells: U2-OS
T2 sequence (P22199 723-961 limits assumed): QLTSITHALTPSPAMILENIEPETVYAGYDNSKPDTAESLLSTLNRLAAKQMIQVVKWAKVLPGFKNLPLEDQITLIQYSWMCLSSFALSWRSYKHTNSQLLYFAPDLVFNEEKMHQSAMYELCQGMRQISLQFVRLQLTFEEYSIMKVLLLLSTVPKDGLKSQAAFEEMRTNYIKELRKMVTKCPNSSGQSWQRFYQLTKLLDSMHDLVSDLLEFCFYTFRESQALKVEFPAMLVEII
Source text: To assess ligand activities on full length MR, U2-OS cells (ATCC HTB96™) were transiently transfected via electroporation with hMR/pCDNA 3.1 or hMR(M777V)/pCDNA3.1 expression plasmids and a MMTV-luc2P/pGL4.36 reporter plasmid. To determine species specific ligand activities, a reporter plasmid where luciferase is driven by the yeast GAL4 response element was cotransfected with plasmids expressing a fusion protein between the GAL4 DNA binding domain and the human, rat or mouse MR LBD. […] Cells were lysed with SteadyLite (Perkin Elmer) according to manufacturers protocol and luminescence was measured using an Envision plate reader.

[1] = tested on: uni-nephrectomised db/db mice; test: organ protection in db/db uni-nephrectomised mice; format: in vivo; details: for plasma K^+ elevations: 4 weeks treatment; for FE K+ end / FE Na+ end / UAE w22 / p-K+ end / u-K+ end / u-Na+ end / u-Na+/K+ end: after 4 weeks treatment; for UAE w18: before treatment, 18 weeks of age; for increased injury (glomerular ECM scoring) from week 18 to 22: four week treatment
Protocol: Obese diabetic male db/db mice (BKS.Cg-Dock7^m +/+ Lepr^db/J homozygotes) and their littermate male db/m mice were obtained from the Jackson Laboratory (Bar Harbor, ME, USA). […] Mice were subjected to right uninephrectomy at 8 weeks of age to hasten the development of diabetic nephropathy as described previously [43]. Db/m mice that received a uninephrectomy at 8 weeks of age served as the operation control. […] All surgery was performed under isoflurane anesthesia, and all efforts were made to minimize suffering.
The blood glucose level and glycosylated hemoglobin (HbA1C) levels were monitored in tail blood samples using a blood glucose meter (Glucometer Elite XL, Bayer Healthcare, Elkhart, IN, USA) and the DC 2000+ HbA1C kit (Bayer Healthcare), respectively, before treatment and at the time of sacrifice. Twenty-four-hour urine was obtained from each mouse after placement in metabolic cages before treatment and at the time of sacrifice. Urine albumin was measured using the DC2000+ microalbumin reagent kit (Bayer Healthcare).
Mice were sacrificed under isoflurane anesthesia. Blood samples were obtained by cardiac puncture for the measurements of plasma compound, K^+ and creatinine concentrations. Plasma K^+ levels were determined on a Radiometer ABL 700 blood gas analyser (Radiometer, Copnchagen DK). Plasma creatinine levels were determined by LC-MS/MS. Urine creatinine was measured by the Jaffe method (Creatinine FS, REF117119910021, DiaSys). Kidneys were perfused through the heart with cold PBS and then excised. One piece of renal cortex was fixed in 10% neutralized formalin for histological staining.
Formalin-fixed renal cortex tissues were subsequently embedded in paraffin. Three-micrometer sections were cut from the tissue blocks and stained with periodic acid-Schiff (PAS). The PAS-positive glomerular matrix was quantitated in a blinded fashion by a computer-assisted method as previously described [43]. At least 20 glomeruli from each individual mouse were assessed. The PAS-positive material area in the mesangium was normalized by that of the total glomerular tuft where the percentage of mesangial matrix occupying each glomerulus area was rated. Glomerular sclerosis index was graded from 0 to 4+ as follows: 0 represents no lesion, 1+ represents sclerosis of <25% of the glomerulus, while 2 =, 3+ and 4+ represent sclerosis of 25% to 50%, >50% to 75%, and >75% of the glomerulus, respectively. A whole kidney average sclerosis index was obtained by averaging scores from all glomeruli on one section.

[2] = tested on: male Sprague Dawley rats on low salt diet; test: acute urinary electrolyte excretion in salt deprived rats; format: in vivo, rat; details: 100 mg kg^-1 AZD9977 co-administered with 10 or 30 mg kg^-1 eplerenone
Protocol: Experimental procedures to assess electrolytes effects in vivo were approved by the local ethics review committee on animal experiments in the Gothenburg region (EA 141-2010). […] Animals had environmental enrichment such as nest pads, nesting box, running ladder and aspen chew sticks. Rats were fed a low salt diet ([…] with 0.02% NaCl, […], Sweden) for 72h prior to dosing to increase endogenous aldosterone levels. […] Immediately following dosing, rats were placed in metabolic cages with free access to drinking water but no food. Urine was collected for 8 hours to determine total electrolyte (Na^+ and K^+) content as well as total urinary volume. Urine was collected at room temperature with no additives. Urine was analyzed for Na^+ and K^+ content on a Radiometer ABL 700 blood gas analyzer (Radiometer, Copenhagen, Denmark).

[3] = pharmacokinetic drug-drug interaction after co-administration in acute rat model; format: in vivo
Source text: To assess if AZD9977 and eplerenone cause pharmacokinetic drug-drug interaction in the rat urine electrolyte excretion model, data were visually explored and a non-compartmental analysis was applied using a linear trapezoidal and linear interpolation. There was no clear trend of pharmacokinetic drug-drug interaction and further analysis was therefore omitted. For all pharmacokinetic-pharmacodynamics analyses Phoenix WinNonlin version 6.4, NMLE version 1.3 (Certara USA, Inc., Princeton, NJ) was used. […]
squares). Log Mean ± log SD. N=2-9 per time point. […]
hrs (25th; 75th percentile: 60; 72), respectively. […]
respectively. AUC was calculated using a non-compartmental analysis with linear trapezoidal and linear interpolation method, as implemented in Phoenix® WinNonlin® version 6.4, NMLE version 1.3 (Certara USA, Inc., Princeton, NJ). […]

MR = tested on: MR; design: method as in PMID 24464876; details: eplerenone vs spironolactone; cited from earlier work
[4] = plasma exposure in rat urine electrolyte excretion model (satellite animals, population PK); details: average (90% CI)
Protocol: In the rat urine electrolyte excretion model, satellite pharmacokinetic animals were used with serial plasma sampling to assess drug exposure levels during the study duration. […] Exposure data were analysed using nonlinear mixed effects pharmacokinetic modelling. Based on the final population pharmacokinetic model, the eight hour study window was simulated and mean exposure was retrieved from these simulations. The 90% confidence intervals of the mean exposure levels were obtained by Monte Carlo simulations based on the uncertainty, using the parameter covariance matrix, of pharmacokinetic parameter estimates. 1000 simulations were performed and based on these simulations the 5th, and 95th percentiles were retrieved.

| SMILES | plasma K^+ elevations [1] | FE K+ end [1] | FE Na+ end [1] | UAE w22 [1] | p-K+ end [1] | u-K+ end [1] | u-Na+ end [1] | u-Na+/K+ end [1] | UAE w18 [1] | increased injury (glomerular ECM scoring) from week 18 to 22 [1] | further results |
| --- | --- | --- | --- | --- | --- | --- | --- | --- | --- | --- | --- |
| CNC(=O)C[C@H]1COc2cc(F)ccc2N1C(=O)c1ccc2c(c1)NC(=O)CO2 [AZD9977, (S)-2-(7-Fluoro-4-(3-oxo-3,4-dihydro-2H-benzo[b][1, 4]oxazine-6-carbonyl)-3,4-dihydro-2H-benzo[b][1, 4]oxazin-3-yl)-N-methylacetamide] | did not cause plasma K^+ elevations | 20.1 ± 0.9% | 0.24 ± 0.01% | 588 ± 80 µg 24h-1 | 3.9 ± 0.2 mM | 0.97 ± 0.10 mmol/24h | 0.45 ± 0.05 mmol/24h | 0.47 ± 0.01 | 797 ± 169 µg 24h-1 | prevented | Ki (PR-LBD): 25100 nM; IC50 (rat MR LBD; read-out: IC50): 80 nM; urine albumin excretion (UAE) compared to vehicle treatment ([1]; four week treatment from 18 weeks of age): reduced the urine albumin excretion; Na^+ excretion caused by eplerenone [2]: attenuated the Na^+ excretion caused by eplerenone; median AUC0-8hrs for AZD9977 ([3]; 100 mg kg-1 AZD9977 administered alone, oral): 66 µM x hrs; median AUC0-8hrs for AZD9977 ([3]; 100 mg kg-1 AZD9977 co-administered with eplerenone 30 mg kg-1): 66 µM x hrs |
| COC(=O)[C@@H]1CC2=CC(=O)CC[C@]2(C)[C@@]23O[C@@H]2C[C@@]2(C)[C@@H](CC[C@@]24CCC(=O)O4)[C@H]13 [eplerenone] | did not cause plasma K^+ elevations | 22.3 ± 1.0% | 0.27 ± 0.02% | 569 ± 76 µg 24h-1 | 3.8 ± 0.1 mM | 0.85 ± 0.10 mmol/24h | 0.40 ± 0.05 mmol/24h | 0.48 ± 0.02 | 892 ± 186 µg 24h-1 | prevented | IC50 (rat MR LBD; ± SD, read-out: pIC50 (converted)): 39.8 nM; median AUC0-8hrs for eplerenone ([3]; 30 mg kg-1 eplerenone administered alone, oral): 26 µM x hrs; median AUC0-8hrs for eplerenone ([3]; 30 mg kg-1 eplerenone co-administered with AZD9977 100 mg kg-1): 40 µM x hrs; reduced receptor potency in vitro compared to spironolactone (MR): 10–20 fold; Cav,in interval ([4]; oral 3 mg kg^-1, 8 h interval): 0.41 (0.35;0.47) μM; Cav,in interval ([4]; oral 10 mg kg^-1, 8 h interval): 1.4 (1.2;1.6) μM; Cav,in interval ([4]; oral 30 mg kg^-1, 8 h interval): 4.1 (3.6;4.7) μM; Cav,in interval ([4]; oral 100 mg kg^-1, 8 h interval): 13.6 (11.8;15.6) μM |
